The target in series [1] is Cholecystokinin receptor type A (Homo sapiens) (UniProt P32238). The series can be described thus: CCKA/H Eurofins SafetyScreen44 (BI). The note with it: Compound concentration 10.0 uM.
In series [2] the target is Beta-1 adrenergic receptor (Homo sapiens) (UniProt P08588). The series can be described thus: BETA1/HUM Eurofins SafetyScreen44 (BI). The note with it: Compound concentration 10.0 uM.
In series [3] the target is Muscarinic acetylcholine receptor M1 (Homo sapiens) (UniProt P11229). The series can be described thus: M1/H Eurofins SafetyScreen44 (BI). The conditions noted are these: Compound concentration 10.0 uM.
A short description of series [4]: HIV1 reverse transcriptase picogreen fluorescence assay (enzymatic). Also noted: species or system Human immunodeficiency virus 1.
Series [5] addresses Neuronal acetylcholine receptor; alpha4/beta2 (Homo sapiens) (UniProt P17787+P43681). The series can be described thus: N_NEURO_A4B2 Eurofins SafetyScreen44 (BI). The note with it: filed as agonist, Compound concentration 10.0 uM. The format is protein-complex assay.
Series [6] addresses Prostaglandin G/H synthase 2 (Homo sapiens) (UniProt P35354). The series can be described thus: COX-2 Eurofins SafetyScreen44 (BI). The note with it: Compound concentration 10.0 uM.
Series [7] concerns the target Angiotensin-converting enzyme (Homo sapiens) (UniProt P12821). Kind of series: ACE(HU_AMTCH400) Eurofins SafetyScreen44 (BI). The note with it: Compound concentration 10.0 uM.
Series [8] addresses Vasopressin V1a receptor (Homo sapiens) (UniProt P37288). Kind of series: V1A/HUM Eurofins SafetyScreen44 (BI). The note with it: Compound concentration 10.0 uM.
The target of series [9] is Glucocorticoid receptor (Homo sapiens) (UniProt P04150). Kind of series: GCORTICOID/H Eurofins SafetyScreen44 (BI). The note with it: Compound concentration 10.0 uM.
Chain of Glucocorticoid receptor (Homo sapiens) (P04150 whole entry): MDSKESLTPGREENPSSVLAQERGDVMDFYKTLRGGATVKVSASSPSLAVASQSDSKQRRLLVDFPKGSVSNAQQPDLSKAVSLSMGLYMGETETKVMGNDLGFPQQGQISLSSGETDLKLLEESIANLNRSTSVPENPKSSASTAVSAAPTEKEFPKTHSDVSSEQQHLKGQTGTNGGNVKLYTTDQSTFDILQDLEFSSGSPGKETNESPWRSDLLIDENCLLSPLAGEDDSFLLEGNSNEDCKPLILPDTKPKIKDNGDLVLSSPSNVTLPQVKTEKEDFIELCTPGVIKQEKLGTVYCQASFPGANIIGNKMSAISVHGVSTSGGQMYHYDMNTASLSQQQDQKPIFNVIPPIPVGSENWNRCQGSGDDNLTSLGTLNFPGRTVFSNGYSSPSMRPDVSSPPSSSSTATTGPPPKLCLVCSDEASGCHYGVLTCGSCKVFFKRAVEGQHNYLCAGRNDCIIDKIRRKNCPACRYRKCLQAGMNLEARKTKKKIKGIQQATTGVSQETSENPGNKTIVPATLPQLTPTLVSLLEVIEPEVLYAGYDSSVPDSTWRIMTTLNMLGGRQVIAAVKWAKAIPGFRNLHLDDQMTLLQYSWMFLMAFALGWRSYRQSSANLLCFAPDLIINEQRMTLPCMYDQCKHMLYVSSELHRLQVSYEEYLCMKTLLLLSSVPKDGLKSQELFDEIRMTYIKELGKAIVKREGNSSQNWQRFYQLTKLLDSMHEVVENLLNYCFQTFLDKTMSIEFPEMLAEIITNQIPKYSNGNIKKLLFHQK
Series [10] has as its target D(2) dopamine receptor (Homo sapiens) (UniProt P14416). Kind of series: D2SH_AGON Eurofins SafetyScreen44 (BI). The conditions noted are these: filed as agonist, Compound concentration 10.0 uM.
For series [11], the target named is L-type Ca2+ channel (dihydropyridine site), Cav1.2 alpha-1C (Rattus norvegicus, UniProt P22002). The series can be described thus: CA+/DHPSI/R Eurofins SafetyScreen44 (BI). Also noted: mode of action inhibitor. The note with it: rat brain, probe [3H](+)PN200-110, compound concentration 10 uM, read-out: % Ctrl.
Series [12] has as its target Glutamate receptor ionotropic, NMDA 2A (Rattus norvegicus) (UniProt Q00959). The series can be described thus: NMDA/R Eurofins SafetyScreen44 (BI). The conditions noted are these: Compound concentration 10.0 uM.
For series [13], the target named is Androgen receptor (Homo sapiens) (UniProt P10275). The series can be described thus: ANDROGEN/H Eurofins SafetyScreen44 (BI). The conditions noted are these: Compound concentration 10.0 uM.
Series [14] deals with Histamine H2 receptor (Homo sapiens) (UniProt P25021). Kind of series: H2/APT/HS Eurofins SafetyScreen44 (BI). The note with it: filed as antagonist, Compound concentration 10.0 uM.
In series [15] the target is 5-hydroxytryptamine receptor 2A (Homo sapiens) (UniProt P28223). The series can be described thus: 5HT2AH_AGON Eurofins SafetyScreen44 (BI). The note with it: filed as agonist, Compound concentration 10.0 uM.
A further series has as its target hERG (KCNH2) (Homo sapiens, UniProt Q12809). Kind of series: HERG_DOFETILIDE Eurofins SafetyScreen44 (BI). On the set-up: mode of action inhibitor. The note with it: probe [3H] dofetilide, compound concentration 10 uM, read-out: % Ctrl.
The target of series [16] is Muscarinic acetylcholine receptor M2 (Homo sapiens) (UniProt P08172). The series can be described thus: M2/H Eurofins SafetyScreen44 (BI). The note with it: filed as antagonist, Compound concentration 10.0 uM.
For series [17], the target named is 5-hydroxytryptamine receptor 1A (Homo sapiens) (UniProt P08908). Kind of series: 5HT1A/H Eurofins SafetyScreen44 (BI). The conditions noted are these: Compound concentration 10.0 uM.
In series [18] the target is Delta-type opioid receptor (Homo sapiens) (UniProt P41143). Kind of series: DELTA2/H Eurofins SafetyScreen44 (BI). The note with it: Compound concentration 10.0 uM.
The target in series [19] is Gamma-aminobutyric acid receptor subunit alpha-1 (Rattus norvegicus) (UniProt P62813). The series can be described thus: BZD/CENTR/R Eurofins SafetyScreen44 (BI). The note with it: Compound concentration 10.0 uM.
Series [20] concerns the target Endothelin-1 receptor (Homo sapiens) (UniProt P25101). Kind of series: ETA/H Eurofins SafetyScreen44 (BI). The note with it: Compound concentration 10.0 uM.
Series [21] has as its target Histamine H1 receptor (Homo sapiens) (UniProt P35367). The series can be described thus: H1/PYRIL/HS Eurofins SafetyScreen44 (BI). The conditions noted are these: Compound concentration 10.0 uM.
Series [22] concerns the target Cannabinoid receptor 2 (Homo sapiens) (UniProt P34972). Kind of series: CB2/PERIPH/H Eurofins SafetyScreen44 (BI). The conditions noted are these: Compound concentration 10.0 uM.
In series [23] the target is Prostaglandin G/H synthase 1 (Homo sapiens) (UniProt P23219). The series can be described thus: COX-1 Eurofins SafetyScreen44 (BI). The conditions noted are these: Compound concentration 10.0 uM.
Chain of Prostaglandin G/H synthase 1 (Homo sapiens) (P23219 whole entry): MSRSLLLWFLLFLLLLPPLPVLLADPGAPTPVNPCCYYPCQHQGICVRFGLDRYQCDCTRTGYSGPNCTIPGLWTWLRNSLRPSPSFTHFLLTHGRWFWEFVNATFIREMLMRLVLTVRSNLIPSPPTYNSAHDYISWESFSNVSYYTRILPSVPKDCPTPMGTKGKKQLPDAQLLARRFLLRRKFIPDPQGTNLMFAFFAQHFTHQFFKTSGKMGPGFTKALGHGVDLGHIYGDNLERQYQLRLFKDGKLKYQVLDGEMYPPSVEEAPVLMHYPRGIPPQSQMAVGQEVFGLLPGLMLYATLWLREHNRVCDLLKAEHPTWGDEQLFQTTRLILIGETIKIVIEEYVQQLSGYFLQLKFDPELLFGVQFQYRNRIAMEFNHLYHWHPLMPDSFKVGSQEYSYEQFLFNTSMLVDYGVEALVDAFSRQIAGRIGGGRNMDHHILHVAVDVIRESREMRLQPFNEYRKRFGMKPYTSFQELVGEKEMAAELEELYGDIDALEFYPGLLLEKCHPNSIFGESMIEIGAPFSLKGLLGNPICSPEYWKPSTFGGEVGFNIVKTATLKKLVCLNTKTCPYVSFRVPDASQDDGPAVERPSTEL
Series [24] has as its target Tyrosine-protein kinase Lck (Homo sapiens) (UniProt P06239). The series can be described thus: LCK_CE Eurofins SafetyScreen44 (BI). The note with it: Compound concentration 10.0 uM.
Series [25] has as its target Muscarinic acetylcholine receptor M3 (Homo sapiens) (UniProt P20309). Kind of series: M3/H Eurofins SafetyScreen44 (BI). The note with it: Compound concentration 10.0 uM.
Series [26] has as its target Kappa-type opioid receptor (Homo sapiens) (UniProt P41145). Kind of series: KAPPA(KOP)_HU Eurofins SafetyScreen44 (BI). The conditions noted are these: Compound concentration 10.0 uM.
Series [27] concerns the target 5-hydroxytryptamine receptor 2B (Homo sapiens) (UniProt P41595). Kind of series: 5HT2B/H AG Eurofins SafetyScreen44 (BI). The note with it: filed as agonist, Compound concentration 10.0 uM.
Series [28] concerns the target cGMP-inhibited 3',5'-cyclic phosphodiesterase 3A (Homo sapiens) (UniProt Q14432). The series can be described thus: PDE3A Eurofins SafetyScreen44 (BI). The note with it: Compound concentration 10.0 uM.
The next series has as its target MAO-A (Rattus norvegicus, UniProt P21396). The series can be described thus: MAO-A_ANTAG Eurofins SafetyScreen44 (BI). On the set-up: mode of action antagonist; scale not given: the % may be the effect or the level left. The conditions noted are these: compound concentration 10 uM, read-out: % Ctrl.
Series [29] has as its target Alpha-1A adrenergic receptor (Homo sapiens) (UniProt P35348). Kind of series: ALPHA1AH_ANTAG Eurofins SafetyScreen44 (BI). The note with it: filed as antagonist, Compound concentration 10.0 uM.
For series [30], the target named is Alpha-2A adrenergic receptor (Homo sapiens) (UniProt P08913). Kind of series: ALPHA2A/HU Eurofins SafetyScreen44 (BI). The note with it: Compound concentration 10.0 uM.
For series [31], the target named is Beta-2 adrenergic receptor (Homo sapiens) (UniProt P07550). Kind of series: BETA2/HUM Eurofins SafetyScreen44 (BI). The conditions noted are these: filed as antagonist, Compound concentration 10.0 uM.
Series [32] deals with Potassium voltage-gated channel subfamily V member 1 (Rattus norvegicus) (UniProt P97557). Kind of series: K+/VOLT/RA Eurofins SafetyScreen44 (BI). The conditions noted are these: Compound concentration 10.0 uM.
In series [33] the target is Sodium-dependent noradrenaline transporter (Homo sapiens) (UniProt P23975). The series can be described thus: NEUP/H Eurofins SafetyScreen44 (BI). The conditions noted are these: Compound concentration 10.0 uM.
The target in series [34] is Cannabinoid receptor 1 (Homo sapiens) (UniProt P21554). Kind of series: CB1(HU)_AGON Eurofins SafetyScreen44 (BI). The note with it: filed as agonist; Compound concentration 10.0 uM.
Chain of Cannabinoid receptor 1 (Homo sapiens) (P21554 whole entry): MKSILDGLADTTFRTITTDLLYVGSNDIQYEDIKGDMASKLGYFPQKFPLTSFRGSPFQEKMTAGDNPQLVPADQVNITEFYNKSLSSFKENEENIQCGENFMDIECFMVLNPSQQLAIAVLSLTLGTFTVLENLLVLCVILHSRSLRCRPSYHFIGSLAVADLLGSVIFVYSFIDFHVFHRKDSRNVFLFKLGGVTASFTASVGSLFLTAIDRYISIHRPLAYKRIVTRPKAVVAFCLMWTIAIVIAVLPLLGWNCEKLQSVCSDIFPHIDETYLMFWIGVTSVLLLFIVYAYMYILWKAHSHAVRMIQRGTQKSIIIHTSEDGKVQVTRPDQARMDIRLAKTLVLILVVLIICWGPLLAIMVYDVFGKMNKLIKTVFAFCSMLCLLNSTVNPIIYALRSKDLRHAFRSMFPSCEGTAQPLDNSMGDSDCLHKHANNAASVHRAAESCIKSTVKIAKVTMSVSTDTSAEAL
Series [35] deals with 3',5'-cyclic-AMP phosphodiesterase 4D (Homo sapiens) (UniProt Q08499). The series can be described thus: PDE4D2 Eurofins SafetyScreen44 (BI). The conditions noted are these: Compound concentration 10.0 uM.
In series [36] the target is Adenosine receptor A2a (Homo sapiens) (UniProt P29274). The series can be described thus: A2A/H Eurofins SafetyScreen44 (BI). The conditions noted are these: filed as antagonist, Compound concentration 10.0 uM.
Chain of Adenosine receptor A2a (Homo sapiens) (P29274 whole entry): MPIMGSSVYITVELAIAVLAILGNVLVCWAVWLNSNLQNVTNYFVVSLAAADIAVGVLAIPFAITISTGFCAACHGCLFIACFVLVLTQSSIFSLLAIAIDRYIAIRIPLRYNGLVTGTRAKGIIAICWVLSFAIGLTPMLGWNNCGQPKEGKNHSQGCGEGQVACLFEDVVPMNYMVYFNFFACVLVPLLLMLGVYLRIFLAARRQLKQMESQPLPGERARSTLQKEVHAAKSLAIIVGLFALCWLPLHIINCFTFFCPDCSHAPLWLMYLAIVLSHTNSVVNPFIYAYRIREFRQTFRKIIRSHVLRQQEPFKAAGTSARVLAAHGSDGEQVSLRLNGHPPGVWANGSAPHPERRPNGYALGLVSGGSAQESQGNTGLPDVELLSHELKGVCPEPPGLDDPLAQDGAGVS
Series [37] has as its target Sodium-dependent dopamine transporter (Homo sapiens) (UniProt Q01959). Kind of series: DATRANS/HUM Eurofins SafetyScreen44 (BI). The note with it: Compound concentration 10.0 uM.
A short description of series [38]: HIV viral replication assay (ELISA). The format is cell-based. The note with it: Human immunodeficiency virus 1, C8166. For orientation: An ELISA detects its analyte on a solid surface through an enzyme-linked reagent.
The target in series [39] is 5-hydroxytryptamine receptor 3A (Homo sapiens) (UniProt P46098). Kind of series: 5HT3/H Eurofins SafetyScreen44 (BI). The conditions noted are these: Compound concentration 10.0 uM.
The target of series [40] is Mu-type opioid receptor (Homo sapiens) (UniProt P35372). Kind of series: MU/H Eurofins SafetyScreen44 (BI). The note with it: Compound concentration 10.0 uM.
For series [41], the target named is 5-hydroxytryptamine receptor 1B (Homo sapiens) (UniProt P28222). The series can be described thus: 5HT1B(H) Eurofins SafetyScreen44 (BI). The note with it: filed as antagonist, Compound concentration 10.0 uM.
Chain of 5-hydroxytryptamine receptor 1B (Homo sapiens) (P28222 whole entry): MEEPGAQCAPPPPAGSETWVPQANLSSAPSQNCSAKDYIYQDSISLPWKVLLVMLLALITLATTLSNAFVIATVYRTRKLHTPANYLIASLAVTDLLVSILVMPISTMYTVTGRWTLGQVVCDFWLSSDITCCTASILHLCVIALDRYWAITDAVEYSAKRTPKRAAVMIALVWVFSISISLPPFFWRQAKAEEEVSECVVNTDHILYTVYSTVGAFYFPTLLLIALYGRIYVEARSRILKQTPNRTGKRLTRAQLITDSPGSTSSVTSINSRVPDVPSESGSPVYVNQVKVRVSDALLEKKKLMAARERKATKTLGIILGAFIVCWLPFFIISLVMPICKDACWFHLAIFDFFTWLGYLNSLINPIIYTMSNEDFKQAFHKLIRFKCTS
Series [42] deals with Sodium-dependent serotonin transporter (Homo sapiens) (UniProt P31645). Kind of series: SLC6A4/H Eurofins SafetyScreen44 (BI). The note with it: filed as antagonist, Compound concentration 10.0 uM.
Chain of Sodium-dependent serotonin transporter (Homo sapiens) (P31645 whole entry, looked up): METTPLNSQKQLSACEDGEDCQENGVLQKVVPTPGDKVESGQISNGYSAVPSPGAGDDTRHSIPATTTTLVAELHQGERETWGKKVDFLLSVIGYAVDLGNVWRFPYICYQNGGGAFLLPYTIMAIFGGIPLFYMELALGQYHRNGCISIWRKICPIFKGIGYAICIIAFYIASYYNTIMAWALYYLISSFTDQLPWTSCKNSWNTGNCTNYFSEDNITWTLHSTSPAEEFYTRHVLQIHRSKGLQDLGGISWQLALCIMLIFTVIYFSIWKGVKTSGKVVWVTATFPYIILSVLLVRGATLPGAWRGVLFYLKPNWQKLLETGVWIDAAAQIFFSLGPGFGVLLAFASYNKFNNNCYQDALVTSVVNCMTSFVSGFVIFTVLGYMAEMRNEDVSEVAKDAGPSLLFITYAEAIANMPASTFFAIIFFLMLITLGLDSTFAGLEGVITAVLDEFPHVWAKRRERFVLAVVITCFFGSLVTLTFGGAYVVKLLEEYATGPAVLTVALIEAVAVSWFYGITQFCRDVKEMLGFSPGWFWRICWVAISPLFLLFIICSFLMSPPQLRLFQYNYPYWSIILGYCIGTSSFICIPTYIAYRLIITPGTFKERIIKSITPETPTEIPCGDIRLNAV
Series [43] deals with D(1A) dopamine receptor (Homo sapiens) (UniProt P21728). The series can be described thus: D1/H Eurofins SafetyScreen44 (BI). The note with it: filed as antagonist, Compound concentration 10.0 uM.
A short description of series [44]: HIV 1 luciferase assay. The format is cell-based, Human immunodeficiency virus 1. The note with it: c8166.

Here are results for two molecules from ChEMBL document CHEMBL4630903, “Data for DCP probe BI-2540” (2021).

The source made the active and inactive calls. The calls are words filed in the database; no cut-off is given here.

Chain of Endothelin-1 receptor (Homo sapiens) (P25101 whole entry): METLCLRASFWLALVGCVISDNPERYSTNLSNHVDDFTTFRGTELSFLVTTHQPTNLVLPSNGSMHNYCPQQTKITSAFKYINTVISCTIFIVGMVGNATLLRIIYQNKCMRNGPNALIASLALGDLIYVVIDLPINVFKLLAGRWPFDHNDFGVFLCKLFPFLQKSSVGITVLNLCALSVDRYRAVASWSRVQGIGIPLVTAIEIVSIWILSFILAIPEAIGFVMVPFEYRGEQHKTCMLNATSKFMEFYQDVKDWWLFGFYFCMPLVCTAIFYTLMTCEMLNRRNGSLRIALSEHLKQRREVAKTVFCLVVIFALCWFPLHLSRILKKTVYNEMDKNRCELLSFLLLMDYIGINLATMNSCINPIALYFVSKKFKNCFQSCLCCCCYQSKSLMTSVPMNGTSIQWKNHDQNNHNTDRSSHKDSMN
Chain of Alpha-1A adrenergic receptor (Homo sapiens) (P35348 whole entry): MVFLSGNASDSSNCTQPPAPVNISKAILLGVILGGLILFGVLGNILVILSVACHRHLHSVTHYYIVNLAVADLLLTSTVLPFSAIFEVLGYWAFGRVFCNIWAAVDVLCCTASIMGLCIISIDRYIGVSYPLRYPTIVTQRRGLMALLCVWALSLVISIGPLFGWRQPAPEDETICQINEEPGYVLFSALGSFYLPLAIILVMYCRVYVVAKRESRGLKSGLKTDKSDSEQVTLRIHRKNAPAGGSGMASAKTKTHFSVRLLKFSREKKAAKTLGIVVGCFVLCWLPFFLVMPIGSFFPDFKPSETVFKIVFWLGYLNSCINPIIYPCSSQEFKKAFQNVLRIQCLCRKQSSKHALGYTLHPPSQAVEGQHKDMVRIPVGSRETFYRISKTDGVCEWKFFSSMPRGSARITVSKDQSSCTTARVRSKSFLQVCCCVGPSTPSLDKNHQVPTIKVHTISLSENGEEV
Chain of D(2) dopamine receptor (Homo sapiens) (P14416 whole entry): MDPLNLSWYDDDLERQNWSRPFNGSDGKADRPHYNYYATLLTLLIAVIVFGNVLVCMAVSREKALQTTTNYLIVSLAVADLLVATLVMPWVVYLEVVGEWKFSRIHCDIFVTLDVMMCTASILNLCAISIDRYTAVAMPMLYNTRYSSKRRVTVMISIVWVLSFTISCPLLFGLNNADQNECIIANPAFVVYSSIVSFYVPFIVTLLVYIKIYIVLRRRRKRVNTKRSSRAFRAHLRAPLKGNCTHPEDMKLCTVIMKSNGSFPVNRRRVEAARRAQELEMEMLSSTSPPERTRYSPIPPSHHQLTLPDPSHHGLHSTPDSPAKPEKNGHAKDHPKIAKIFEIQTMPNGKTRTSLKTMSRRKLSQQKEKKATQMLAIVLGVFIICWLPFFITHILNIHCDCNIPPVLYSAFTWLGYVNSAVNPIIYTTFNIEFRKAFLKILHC
Chain of Cannabinoid receptor 2 (Homo sapiens) (P34972 whole entry): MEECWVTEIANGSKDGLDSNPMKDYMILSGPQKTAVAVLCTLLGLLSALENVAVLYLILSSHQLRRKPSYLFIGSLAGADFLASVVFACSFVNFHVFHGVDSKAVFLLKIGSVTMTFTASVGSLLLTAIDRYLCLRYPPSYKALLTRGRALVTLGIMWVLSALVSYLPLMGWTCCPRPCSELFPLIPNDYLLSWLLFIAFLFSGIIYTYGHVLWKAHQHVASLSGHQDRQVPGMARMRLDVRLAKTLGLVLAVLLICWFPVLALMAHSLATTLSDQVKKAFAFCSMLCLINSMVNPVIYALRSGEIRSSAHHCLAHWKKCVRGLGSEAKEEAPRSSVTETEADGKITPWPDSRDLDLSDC

Usually IC50 stands for the midpoint of a concentration-inhibition curve. On to `Cc1c(NC(=O)COc2ccc(Cl)cc2C(=O)c2cc(F)cc(C(F)(F)F)c2)ccc(C(=O)O)c1F` [BI 2540], for which the residual activity in [1] is 108%; in series [2], 101%; in series [3], 113%; in [5], 102%; in series [6], 84%; in series [7], 110%. The residual activity is 107% in series [8]; 103% in series [9]; 96% in series [10]; 87% in series [12]; 105% in series [13]; 111% in series [14]. Further, the residual activity in series [15] was 110%; in [16] it was 111%; in [17] it was 94%; in [18] it was 78%; in series [19], 127%; in [20], 113%. Moreover, the residual activity was 96% in series [21]; 100% in series [22]; 110% in series [23]; 88% in series [24]; 101% in series [25]; 103% in series [26]. Besides, the residual activity is 103% in series [27]; 103% in [28]; 97% in series [29]; 79% in series [30]; 96% in series [31]; 103% in series [32]. For the same molecule, the residual activity is 98% in series [33]; 125% in [34]; 93% in series [35]; 82% in series [36]; 92% in [37]; 100% in [39]. Besides, the residual activity in series [40] was 99%; in series [41] it was 90%; in series [42] it was 110%; in series [43], 100%. The half-maximal inhibitory concentration (IC50) in [4] is 12 nM (active); in series [38] it was 0.76 nM (active); in series [44], 2.6 nM (active). In addition, the values for the activity at 10 µM (in series [11]; on hERG (KCNH2); at MAO-A) were 96% (not active), 94% (not active) and 104% (not active), respectively.

As to `CC(C)(C#Cc1ccc(NC(=O)COc2ccccc2C(=O)c2ccccc2)c(Cl)c1)C(=O)O` [BI 2439], the IC50 in series [4] is 5050 nM (not active).
